The subject of one test is SK-OV-3. The experiment in a line: Cytotoxicity against human SKOV3 cells after 48 hrs by MTT assay. The test is classed as functional, cell-based. In general terms: Tetrazolium dyes change colour on reduction, which living cells bring about.
The nature of test [1]: Cytotoxicity against human BIU87 cells after 48 hrs by MTT assay. The test is classed as functional, cell-based.
The nature of test [2]: Cytotoxicity against human GLC82 cells after 48 hrs by MTT assay. The test is classed as functional, cell-based.
The subject of another test is EJ. The experiment in a line: Cytotoxicity against human EJ cells after 48 hrs by MTT assay. The test is classed as functional, cell-based.
A further test deals with K562. The experiment in a line: Cytotoxicity against human K562 cells after 48 hrs by MTT assay. The format is functional, cell-based.
A short description of test [3]: Cytotoxicity against human AGZY cells after 48 hrs by MTT assay. The format is functional, cell-based.
A further test relates to SGC-7901. The experiment in a line: Cytotoxicity against human SGC7901 cells after 48 hrs by MTT assay. The format is functional, cell-based.
The test system of another test is A549. The experiment in a line: Cytotoxicity against human A549 cells by SRB assay. The test is classed as functional, cell-based. In general terms: Sulforhodamine B stains cellular protein and so reports cell mass.
In another test the test system is Escherichia coli. The experiment in a line: Antibacterial activity against Escherichia coli by microdilution assay. The test is classed as functional, organism-based.
Another test relates to MCF7. The experiment in a line: Cytotoxicity against human MCF7 cells after 48 hrs by MTT assay. The format is functional, cell-based. The note with it: MCF7, 48 h.
A further test relates to Staphylococcus aureus. The experiment in a line: Antibacterial activity against Staphylococcus aureus by microdilution assay. The test is classed as functional.
Setting [4] is: Homo sapiens, K562, 48 h, read-out: IC50.

In brackets after ≈: the same amount, converted by molar mass. Activity calls are given as the source filed them.

What is called IC50 is the concentration needed to halve the response being measured. One may read the MIC as the smallest concentration in the dilution series that meets the test's criterion for growth inhibition.

As for `C=C1CC/C=C(\C)C[C@H](OC(=O)/C=C/c2ccc(O)c([N+](=O)[O-])c2)CC(C)(C)C[C@@H]1O`, the IC50 result (in the test with SK-OV-3; in test [1]; in test [2]; with EJ; with K562 (k562); in [3] (agzy)) was “Not Active” throughout. Moreover, the half-inhibitory concentration (IC50) entry in the test on SGC-7901 (sgc-7901) is on record as “Not Active”.

In the case of `C/C1=C\CC(C)(C)C[C@@H](OC(=O)/C=C/c2ccc(O)cc2)C/C(C)=C/CC1`, the concentration for half-maximal inhibition (IC50) entry was “Not Active” in the test with SK-OV-3; 25.6 µg/mL (≈ 69.5 µM) in the test with A549; “Not Active” in test [1]; “Not Active” in test [2]; “Not Active” in the test with EJ; 40.5 µg/mL (≈ 110 µM) with MCF7. Besides, the half-inhibitory concentration (IC50) in the test on K562 (setting [4]) is 12 µg/mL (≈ 32.6 µM); in test [3] (Homo sapiens, AGZY, 48 h, read-out: IC50), 27.8 µg/mL (≈ 75.5 µM); in the test on SGC-7901 (Homo sapiens, SGC-7901, 48 h, read-out: IC50), 49.4 µg/mL (≈ 134 µM). In addition, the MIC result with Escherichia coli and with Staphylococcus aureus was “inactive” throughout.

Regarding `C=C1CC/C=C(\C)C[C@H](OC(=O)/C=C/c2ccc(O)cc2)CC(C)(C)C[C@@H]1OO`, the IC50 result in the test on SK-OV-3 is “Not Active”; with A549 it was 33.4 µg/mL (≈ 83.3 µM); in [1], “Not Active”; in test [2], “Not Active”; in the test with EJ it was “Not Active”; with MCF7, 23.4 µg/mL (≈ 58.4 µM). The IC50 in the test on K562 (setting [4]) is 57.4 µg/mL (≈ 143 µM); in test [3] (agzy), “Not Active”; in the test with SGC-7901 (sgc-7901), “Not Active”. For the same molecule, the MIC result in the test on Escherichia coli is “inactive”. This molecule also returned an MIC in the test on Staphylococcus aureus of 45 µg/mL (≈ 112 µM).

Take `O=c1[nH]cc(F)c(=O)[nH]1` [FLUOROURACIL]: the IC50 in the test on A549 stood at 2 µg/mL (≈ 15.4 µM).

Take `CC(C)[C@@H]1CC[C@]2(C)[C@H]3CC[C@]2(C)[C@H](OC(=O)/C=C/c2ccc(O)cc2)[C@@H]13`: the IC50 result was “Not Active” in the test with SK-OV-3; “Not Active” in [1]; “Not Active” in test [2]; “Not Active” in the test with EJ; 41.7 µg/mL (≈ 113 µM) in the test with K562 (setting [4]); “Not Active” in test [3] (agzy). For the same molecule, the half-maximal inhibitory concentration (IC50) entry with SGC-7901 (sgc-7901) is “Not Active”.

For the molecule GENTAMICIN, the minimum inhibitory concentration (MIC) in the test on Escherichia coli and in the test with Staphylococcus aureus was 0.05 µg/mL in each case.

Values taken from ChEMBL document CHEMBL1155188, “Sesquiterpenoids from Pilea cavaleriei subsp. crenata” (Bioorg Med Chem Lett, 2009).
